Among the data in patent US20250129021A1, “SMALL MOLECULE PROTEIN SYNTHESIS MODULATORS” (Interdict Bio, Inc., priority 2023, published 2025) are IC50 values, retold here.

Common to all, as to assay type: biochemical
One experiment has as its system MYC. Description: In vitro transcription-translation (IVTT) assay, MYC reporter. To be noted: IVTT assay, HeLa S3 lysate, MYC reporter, normalized sfGFP/mCherry ratio; half-log dilutions 30 μM-0.1 μM, 2 hrs at 30° C. In a few lines: (§1)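 Reporter: mCherry, P2A, then 3×FLAG-target peptide-sfGFP fusion, IRES-initiated; HeLa S3 lysate IVTT; cpd dilutions 30 μM−0.1 μM half-log in 100% DMSO (dilution-plate conc); DNA added last; 2 h, 30° C; PBS quench.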

The test system of a further experiment is CCND1. Description: In vitro transcription-translation (IVTT) assay, CCND1 reporter. As to conditions: IVTT assay, HeLa S3 lysate, sfGFP/mCherry ratio. The gist of the method: as §1
Another experiment concerns NFKB1. Description: In vitro transcription-translation (IVTT) assay, NFKB1 reporter. To be noted: HeLa S3 lysate, sfGFP/mCherry ratio. As to the method: In vitro transcription-translation assay setup: Each assay includes a master mix containing lysate and shared components, a 96-well plate containing compound titrations for testing, a 96-well DNA plate with reporter constructs to be tested, 96-well skirted PCR plates, and 96-well flat-bottom, black, fluorescent assay plates. Reaction materials setup: (A) Master mix—15 mL conical tube (3 mL of HeLa S3 Lysate described above; 0.6 mL of ThermoFisher Accessory Proteins (#88882); 1.2 ml of ThermoFisher Reaction Mix (#88882); 0.54 mL of nuclease-free Water); (B) 96-Well Master Mix+Compound Plate (Half-log dilutions (30 μM−0.1 μM) of 4 compounds of interest are prepared in 100% DMSO); 96-Well DNA Plate (Five DNA constructs are plated into single columns within the plate. Row 1 of the column contains nuclease free H2O, all other wells contain 110 ng/μL plasmid DNA). Reactions are started by mixing 155 μL of master mix and 3.5 μL of compound serial dilutions, then 9.1 μL of master mix+compound mixture is aliquoted across 5 96-well plates. Reactions begin with final addition of 2 μL of DNA for a 11.1 μL reaction volume in each well. The entire plate is sealed, and incubated for 2 hrs at 30° C. After 2 hrs, quench the assay using 45 μL of PBS, and transfer 50 μL to a flat-bottom black microplate Quantify the sfGFP and mCherry signals from each well on each plate, taking 3 reads of each plate, and perform data analysis below.
In vitro transcription-translation assay data analysis: Each plate is read three times in channels for both sfGFP and mCherry signals. The average signal across these 3 reads is then calculated for further analysis. Control wells containing no DNA reporter are subtracted from reporter wells in the same column to remove auto-fluorescence of the lysate. Then, the ratio of sfGFP/mCherry is calculated per well, and these ratios are averaged across the triplicate experiments on the same plate. Finally, the ratio of each titration concentration is normalized to the no drug control to create the normalized stalling metric. The error on this measurement is determined by propagating error through the averaging and normalization steps. Values are plotted and fit for IC50 determination for each test sequence and titration of compound.

Turning to `O=C(NCC[C@@H]1CCCN1)O[C@@H]1[C@@H](O)CN[C@@H]1Cc1ccc(-c2cnns2)cc1` [V192320, (2R,3S,4S)-4-hydroxy-2-{[4-(1,2,3-thiadiazol-5-yl)phenyl]methyl}pyrrolidin-3-yl N-{2-[(2S)-pyrrolidin-2-yl]ethyl}carbamate], the IC50 in the experiment on MYC, in the experiment on CCND1 and in the experiment with NFKB1 was less than 10 µM throughout.

For `O=C(NCC[C@@H]1CCCN1)O[C@@H]1[C@@H](O)CN[C@@H]1Cc1ccc(-c2cnco2)c(F)c1` [V192903, (2R,3S,4S)-2-{[3-fluoro-4-(1,3-oxazol-5-yl)phenyl]methyl}-4-hydroxypyrrolidin-3-yl N-{2-[(2S)-pyrrolidin-2-yl]ethyl}carbamate], the figures for the IC50 with MYC, with CCND1 and in the experiment with NFKB1 were less than 10 µM, 10 to 20 µM and less than 10 µM, respectively.

Turning to `O=C(NCC[C@@H]1CC(F)CN1)O[C@@H]1[C@@H](O)CN[C@@H]1Cc1ccc(-c2cnco2)cc1` (stereo partly drawn) [V192916, (2R,3S,4S)-4-hydroxy-2-{[4-(1,3-oxazol-5-yl)phenyl]methyl}pyrrolidin-3-yl N-{2-[(2R)-4-fluoropyrrolidin-2-yl]ethyl}carbamate], the IC50 in the experiment on MYC, in the experiment on CCND1 and in the experiment on NFKB1 was less than 10 µM in each case.

`O=C(NCc1cccc(F)c1)O[C@@H]1[C@@H](O)CN[C@@H]1Cc1ccc(-c2cnc(C(F)F)s2)cc1` [V192310, (2R,3S,4S)-2-({4-[2-(difluoromethyl)-1,3-thiazol-5-yl]phenyl}methyl)-4-hydroxypyrrolidin-3-yl N-[(3-fluorophenyl)methyl]carbamate]: the IC50 with MYC is less than 10 µM; in the experiment with CCND1, 10 to 20 µM; in the experiment with NFKB1, less than 10 µM.

Consider `O=C(NCC[C@@H]1CCCN1)O[C@@H]1[C@@H](O)CN[C@@H]1Cc1ccc(C(F)F)cc1` [V192893, (2R,3S,4S)-2-(4-(difluoromethyl)benzyl)-4-hydroxypyrrolidin-3-yl (2-((S)-pyrrolidin-2-yl)ethyl)carbamate], for which the IC50 in the experiment with MYC, in the experiment with CCND1 and with NFKB1 was less than 10 µM in each case.

For the compound `O=C(NCCc1cc(F)c(O)c(F)c1)O[C@@H]1[C@@H](O)CN[C@@H]1Cc1ccc(-c2cnco2)cc1` [V192432, (2R,3S,4S)-4-hydroxy-2-{[4-(1,3-oxazol-5-yl)phenyl]methyl}pyrrolidin-3-yl N-[2-(3,5-difluoro-4-hydroxyphenyl)ethyl]carbamate], the IC50 in the experiment with MYC, with CCND1 and with NFKB1 was less than 10 µM in each case.

Consider `O=C(NCCC1CCNCC1)O[C@@H]1[C@@H](O)CN[C@@H]1Cc1ccc(-c2ccc(Cl)s2)cc1` [V192261, (2R,3S,4S)-2-{[4-(5-chlorothiophen-2-yl)phenyl]methyl}-4-hydroxypyrrolidin-3-yl N-[2-(piperidin-4-yl)ethyl]carbamate], for which the IC50 in the experiment on MYC, with CCND1 and in the experiment with NFKB1 was less than 10 µM in each case.

As for `CNC1(c2cccc(CNC(=O)O[C@@H]3[C@@H](O)CN[C@@H]3Cc3ccc(-c4cnco4)cc3)c2)CC1` [V192289, (2R,3S,4S)-4-hydroxy-2-{[4-(1,3-oxazol-5-yl)phenyl]methyl}pyrrolidin-3-yl N-({3-[1-(methylamino)cyclopropyl]phenyl}methyl)carbamate], the IC50 with MYC, with CCND1 and in the experiment on NFKB1 was less than 10 µM in each case.

On to `O=C(NCC[C@@H]1C[C@H](F)CN1)O[C@@H]1[C@@H](O)CN[C@@H]1Cc1ccc(-c2cnco2)cc1` [V192917, (2R,3S,4S)-4-hydroxy-2-{[4-(1,3-oxazol-5-yl)phenyl]methyl}pyrrolidin-3-yl N-{2-[(2R,4S)-4-fluoropyrrolidin-2-yl]ethyl}carbamate], for which the IC50 in the experiment on MYC, with CCND1 and in the experiment on NFKB1 was less than 10 µM in each case.

With `O=C(NCC[C@@H]1CCCN1)O[C@@H]1[C@@H](O)CN[C@@H]1Cc1ccc([N+](=O)[O-])cc1` [V192359, (2R,3S,4S)-4-hydroxy-2-[(4-nitrophenyl)methyl]pyrrolidin-3-yl N-{2-[(2S)-pyrrolidin-2-yl]ethyl}carbamate], the 50% inhibitory concentration (IC50) in the experiment with MYC, in the experiment on CCND1 and in the experiment on NFKB1 was less than 10 µM throughout.

`O=C(NCc1cccc(F)c1)O[C@@H]1[C@@H](O)CN[C@@H]1Cc1ccc(-c2ccc3nonc3c2)cc1` [V192385, (2R,3S,4S)-2-{[4-(2,1,3-benzoxadiazol-5-yl)phenyl]methyl}-4-hydroxypyrrolidin-3-yl N-[(3-fluorophenyl)methyl]carbamate]: the IC50 with MYC, with CCND1 and in the experiment with NFKB1 was less than 10 µM in each case.

For the compound `O=C(NCc1cccc(F)c1)O[C@@H]1[C@@H](O)CN[C@@H]1Cc1ccc(-c2ccns2)cc1` [V192324, (2R,3S,4S)-4-hydroxy-2-{[4-(1,2-thiazol-5-yl)phenyl]methyl}pyrrolidin-3-yl N-[(3-fluorophenyl)methyl]carbamate], the IC50 in the experiment with MYC, with CCND1 and with NFKB1 was less than 10 µM in each case.

`O=C(NCc1cccc(F)c1)O[C@@H]1[C@@H](O)CN[C@@H]1Cc1ccc(Oc2cccnc2)cc1` [V192398, (2R,3S,4S)-4-hydroxy-2-{[4-(pyridin-3-yloxy)phenyl]methyl}pyrrolidin-3-yl N-[(3-fluorophenyl)methyl]carbamate]: the IC50 in the experiment on MYC, in the experiment on CCND1 and in the experiment with NFKB1 was less than 10 µM throughout.

For `O=C(NCc1cccc(F)c1)O[C@@H]1[C@@H](O)CN[C@@H]1Cc1ccc(-c2cn3cc(C(F)(F)F)nc3s2)cc1` [V192874, (2R,3S,4S)-4-hydroxy-2-({4-[6-(trifluoromethyl)imidazo[2,1-b][1,3]thiazol-2-yl]phenyl}methyl)pyrrolidin-3-yl N-[(3-fluorophenyl)methyl]carbamate], the IC50 with MYC, with CCND1 and in the experiment with NFKB1 was less than 10 µM throughout.

In the case of `O=C(NCC[C@H]1CCNCC1(F)F)O[C@@H]1[C@@H](O)CN[C@@H]1Cc1ccc(-c2cnco2)cc1` [V192894, (2R,3S,4S)-4-hydroxy-2-{[4-(1,3-oxazol-5-yl)phenyl]methyl}pyrrolidin-3-yl N-{2-[(4R)-3,3-difluoropiperidin-4-yl]ethyl}carbamate], the IC50 in the experiment on MYC, with CCND1 and in the experiment on NFKB1 was less than 10 µM each time.

For the compound `O=C(NCCC12CNC(C1)C2)O[C@@H]1[C@@H](O)CN[C@@H]1Cc1ccc(-c2cnco2)cc1` [V192849, (2R,3S,4S)-4-hydroxy-2-{[4-(1,3-oxazol-5-yl)phenyl]methyl}pyrrolidin-3-yl N-(2-{2-azabicyclo[2.1.1]hexan-4-yl}ethyl)carbamate], the IC50 with MYC, in the experiment on CCND1 and in the experiment on NFKB1 was less than 10 µM throughout.

Regarding `O=C(NCc1cnsc1)O[C@@H]1[C@@H](O)CN[C@@H]1Cc1ccc(-c2cnco2)cc1` [V192110, (2R,3S,4S)-4-hydroxy-2-(4-(oxazol-5-yl)benzyl)pyrrolidin-3-yl (isothiazol-4-ylmethyl)carbamate], the IC50 in the experiment with MYC, in the experiment on CCND1 and with NFKB1 was less than 10 µM each time.
